Test results reported in PMC8874475, “Antioxidant–Anti-Inflammatory Evaluation of a Polyherbal Formula” (Pharmaceuticals, 2022).

Key:
[1] = system: egg white-induced rat paw edema; experiment: Egg white-induced rat paw edema, plethysmometry; assay type: in vivo, Wistar rats; conditions: for Average Paw Size ± SD / Average Rise in Paw Volume ± SD: n = 3; for % inhibition of paw volume: oral, 1 h before egg white, formula F 250 mg/mL at 1 mL/100 g bw, ASP 100 mg/kg
Procedure: Of the many methods used in screening for the anti-inflammatory effects of various drugs, the most commonly used is the method of highlighting the inhibitory effect of edema produced in the hind paw of a rat after the injection of an inflammatory product. We used whole, fresh egg white, which, due to its inflammation being maintained for a relatively short period of time, is optimal for observation. The effect was measured by the computerized plethysmometric method, the method unanimously and currently used in testing systemic anti-inflammatory effects.
The increases in the volume of the inflamed extremity at 30, 60, 120 and 180 min were expressed as a percentages compared with the volumes measured […] injection of the irritant (Table 3). The mean values of the measured volumes for each animal and the times of measurement were calculated, as were ± standard deviations, followed by the mean values per batch (Table 4). The differences between the averages of the values obtained in the treated groups and those of the control groups (with or without treatment), were calculated for each measurement moment and the anti-inflammatory indexes were evaluated.
The anti-inflammatory effect of plant extracts was evaluated by rat paw edema assay. Wistar rats, of both sexes, weighing 150–200 g provided by the Cantacuzino Institute Biobase were used for the study. Lots of equal numbers of animals (n = 3) were established for each test sample or reference product. The animals were checked at the reception and kept for a period of 7 days for acclimatization, with observation of the clinical condition, behavior and food consumption. They were weighed at the reception and after the acclimatization period, with the selection for testing of animals with weight variations less than 10% of the initial weight. The animals were housed in appropriate cages, in small groups of the same sex. The temperature of the experimental chamber was 22 ± 2 °C and the relative humidity was 50–60%. The lighting was artificial, alternately 12-h light and 12-h dark. The animals received standardized food and water ad libitum. Twelve hours before the test, they were kept at the post and allowed access to water. The measurement of the inflamed segments volumes and their subsequent evolution was performed with the help of a U40 Basile-Italy computerized plethysmometer 7140 and the CUB dedicated software program for data acquisition and storage. The test samples and the reference substance were administered orally by intragastric gavage 1 h before the injection of the inflammatory substance (whole, fresh egg white).
The animals were injected subcutaneously with a volume of 0.1 mL of the inflammatory agent on the plantar surface of the right hind limb.
The volume of the right hind limb was measured plethysometrically prior to injection with the inflammatory agent, which represented the “0” moment of the measurements. The volume of the extremity was measured repeatedly, at 30, 60, 120 and 180 min.
In order to perform the readings, the inflamed extremity was visually marked at the level of the lateral ankle, then it was introduced into the immersion liquid of the measuring cell of the device to this level, with the performance of three measurements for each animal and for each moment, established according to the working protocol, with data storage facilitated by the plethysmometer software. The samples were administered orally by intragastric gavage, as such, at a volume of 1 mL/100 g of bw. Powder samples, after suspension with Tween 80, were administered at a concentration of 250 mg/mL, at 1 mL/100 g of bw.
The reference product (acetylsalicylic acid/aspirin) (Zentiva, Bucharest, Romania) was administered in the same way, in the form of a suspension in two doses of 100 mg/kg of bw at a volume of 1 mL/100 g of bw.

paw edema = conditions: cited from earlier work
NO = conditions: cited from earlier work

In the case of CC(=O)Oc1ccccc1C(=O)O [ASP 100, acetylsalicylic acid], the “Average Paw Size ± SD” value ([1]; 0 min (prior to injection)) is reported as 1.744 ± 0.297 mL, the “anti-inflammatory effect over the observation period” value ([1]; 30–180 min) is reported as “anti-inflammatory effect that was induced early” and the “Average Paw Size ± SD” value ([1]; 30 min) is reported as 2.489 ± 0.241 mL. The “Average Rise in Paw Volume ± SD” value ([1]; 30 min) was 0.745 ± 0.056 mL, the “Average Paw Size ± SD” value ([1]; 60 min) was 2.318 ± 0.161 mL and the “Average Rise in Paw Volume ± SD” value ([1]; 60 min) was 0.574 ± 0.136 mL. The “% inhibition of paw volume” value ([1]; 60 min) was 58.20%, the “Average Paw Size ± SD” value ([1]; 120 min) was 2.216 ± 0.197 mL and the “Average Rise in Paw Volume ± SD” value ([1]; 120 min) was 0.472 ± 0.1 mL. For the same compound, the “% inhibition of paw volume” value ([1]; 120 min) was 64.25%, the “Average Paw Size ± SD” value ([1]; 180 min) was 2.211 ± 0.263 mL and the “Average Rise in Paw Volume ± SD” value ([1]; 180 min) was 0.467 ± 0.034 mL. For the same compound, the “inhibitory action on paw edema” value (paw edema; third hour, 200 mg/kg, p < 0.05) was 31.87%.
In the case of CC(C)c1cc2c(c(O)c1O)[C@@]1(C(=O)O)CCCC(C)(C)[C@@H]1CC2 [Carnosic acid], the “concentration that inhibits NO completely” value (NO) is listed as over 12.5 µg/mL.
In the case of CC(C)c1cc2c(c(O)c1O)[C@@]13CCCC(C)(C)[C@@H]1C[C@@H]2OC3=O [carnosol], the IC50 (NO; read-out: IC50 NO inhibition) is given as 9.4 µM.
In the case of O=C(/C=C/c1ccc(O)c(O)c1)O[C@H](Cc1ccc(O)c(O)c1)C(=O)O [rosmarinic acid], the “reduction of paw edema” value (paw edema; dose of 25 mg/kg, after 6 hrs) is listed as “over 60%”.
